The values below come from ChEMBL document CHEMBL3525924, “Cytochrome P450 3A-mediated microsomal biotransformation of 1α,25-dihydroxyvitamin D3 in mouse and human liver: drug-related induction and inhibition of catabolism” (Drug Metab Dispos, 2012).

Format in all cases: ADME
Data set [1] can be described thus: Drug metabolism in CD1 mouse liver microsomes assessed as metabolite formation at 20 uM after 30 mins by LC/MS analysis in presence of NADPH and CYP2A inhibitor 8-methoxypsoralen. To be noted: 0.5 h. (Liver microsomes are a subcellular fraction often used to study metabolism.)
Data set [2] is described as follows: Drug metabolism in CD1 mouse liver microsomes assessed as metabolite formation at 20 uM after 30 mins by LC/MS analysis in presence of NADPH and CYP2D inhibitor quinine. The settings on record: 0.5 h.
A short description of data set [3]: Drug metabolism in CD1 mouse liver microsomes assessed as metabolite formation at 20 uM after 30 mins by LC/MS analysis in presence of NADPH and CYP2E inhibitor di-ethyldithiocarbamate. To be noted: 0.5 h.
Data set [4] in a line: Drug metabolism in dexamethasone treated CD1 mouse liver microsomes assessed as metabolite formation at 20 uM after 30 mins by LC/MS analysis in presence of NADPH and CYP2D inhibitor quinine. To be noted: 0.5 h.
The test system of data set [5] is Liver microsome. Briefly: Drug level in human liver microsomes assessed as retention time treated with 20 uM of 1alpha,25(OH)2D3 after 30 mins by LC/MS analysis in presence of NADPH. To be noted: 0.5 h.
Data set [6] can be described thus: Drug metabolism in dexamethasone treated CD1 mouse liver microsomes assessed as metabolite formation at 20 uM after 30 mins by LC/MS analysis in presence of NADPH and CYP1A1 inhibitor alpha-naphthoflavone. The settings on record: 0.5 h.
For data set [7], the system named is Liver microsome. Briefly: Drug metabolism in human liver microsomes assessed as IC50 for ritonavir-mediated inhibition of metabolite formation at 20 uM after 30 mins by LC/MS analysis. The settings on record: 0.5 h.
Data set [8] is described as follows: Drug metabolism in prednisone treated CD1 mouse liver microsomes treated with 20 uM of 1alpha,25(OH)2D3 assessed as metabolite formation after 30 mins by LC/MS analysis in presence of NADPH. The settings on record: 0.5 h.
Data set [9] is described as follows: Drug metabolism in dexamethasone treated CD1 mouse liver microsomes assessed as metabolite formation at 20 uM after 30 mins by LC/MS analysis in presence of NADPH and CYP2A inhibitor 8-methoxypsoralen. To be noted: 0.5 h.
Data set [10] is described as follows: Drug metabolism in CD1 mouse liver microsomes assessed as metabolite formation at 20 uM after 30 mins by LC/MS analysis in presence of NADPH and CYP2C inhibitor sulfaphenazole. To be noted: 0.5 h.
Data set [11] relates to Liver microsome. The experiment in a line: Drug metabolism in human liver microsomes assessed as IC50 for tamoxifen-mediated inhibition of metabolite formation at 20 uM after 30 mins by LC/MS analysis. The settings on record: 0.5 h.
Data set [12] is described as follows: Drug metabolism in CD1 mouse liver microsomes assessed as metabolite formation at 20 uM after 30 mins by LC/MS analysis in presence of NADPH and CYP2B inhibitor orphenadrine. The settings on record: 0.5 h.
In data set [13] the test system is Liver microsome. The experiment in a line: Drug metabolism in human liver microsomes assessed as IC50 for docetaxel-mediated inhibition of metabolite formation at 20 uM after 30 mins by LC/MS analysis. To be noted: 0.5 h.
Data set [14] can be described thus: Drug metabolism in prednisone treated CD1 mouse liver microsomes assessed as metabolite formation at 20 uM after 30 mins by LC/MS analysis in presence of NADPH and CYP1A1 inhibitor alpha-naphthoflavone. The settings on record: 0.5 h.
The subject of data set [15] is Liver microsome. Briefly: Drug metabolism in human liver microsomes assessed as IC50 for ketoconazole-mediated inhibition of metabolite formation at 20 uM after 30 mins by LC/MS analysis. To be noted: 0.5 h.
The nature of data set [16]: Drug metabolism in dexamethasone treated CD1 mouse liver microsomes assessed as metabolite formation at 20 uM after 30 mins by LC/MS analysis in presence of NADPH and CYP2E inhibitor di-ethyldithiocarbamate. The settings on record: 0.5 h.
For data set [17], the system named is Liver microsome. The experiment in a line: Drug metabolism in human liver microsomes assessed as IC50 for clarithromycin-mediated inhibition of metabolite formation at 20 uM after 30 mins by LC/MS analysis. The settings on record: 0.5 h.
Data set [18] is described as follows: Drug metabolism in dexamethasone treated CD1 mouse liver microsomes assessed as metabolite formation at 20 uM after 30 mins by LC/MS analysis in presence of NADPH and CYP1A2 inhibitor furafyline. The settings on record: 0.5 h.
The nature of data set [19]: Drug metabolism in dexamethasone treated CD1 mouse liver microsomes assessed as metabolite formation at 20 uM after 30 mins by LC/MS analysis in presence of NADPH and CYP2C inhibitor sulfaphenazole. The settings on record: 0.5 h.
Data set [20] in a line: Drug metabolism in prednisone treated CD1 mouse liver microsomes assessed as metabolite formation at 20 uM after 30 mins by LC/MS analysis in presence of NADPH and CYP2A inhibitor 8-methoxypsoralen. The settings on record: 0.5 h.
Data set [21] can be described thus: Drug metabolism in prednisone treated CD1 mouse liver microsomes assessed as metabolite formation at 20 uM after 30 mins by LC/MS analysis in presence of NADPH and CYP2B inhibitor orphenadrine. To be noted: 0.5 h.
Data set [22] is described as follows: Drug metabolism in prednisone treated CD1 mouse liver microsomes assessed as metabolite formation at 20 uM after 30 mins by LC/MS analysis in presence of NADPH and CYP2D inhibitor quinine. To be noted: 0.5 h.
Data set [23] in a line: Drug metabolism in dexamethasone treated CD1 mouse liver microsomes assessed as metabolite formation at 20 uM after 30 mins by LC/MS analysis in presence of NADPH and CYP2B inhibitor orphenadrine. To be noted: 0.5 h.
A short description of data set [24]: Drug metabolism in CD1 mouse liver microsomes assessed as metabolite formation at 20 uM after 30 mins by LC/MS analysis in presence of NADPH and CYP1A2 inhibitor furafyline. The settings on record: 0.5 h.
Data set [25] can be described thus: Drug metabolism in CD1 mouse liver microsomes assessed as metabolite formation at 20 uM after 30 mins by LC/MS analysis in presence of NADPH and CYP1A1 inhibitor alpha-naphthoflavone. To be noted: 0.5 h.
Data set [26] in a line: Drug metabolism in prednisone treated CD1 mouse liver microsomes assessed as metabolite formation at 20 uM after 30 mins by LC/MS analysis in presence of NADPH and CYP1A2 inhibitor furafyline. The settings on record: 0.5 h.
Data set [27] is described as follows: Drug level in dexamethasone treated CD1 mouse liver microsomes treated with 20 uM of 1alpha,25(OH)2D3 after 30 mins by LC/MS analysis in presence of NADPH relative to vehicle treated mouse. The settings on record: 0.5 h.
Data set [28] can be described thus: Drug metabolism in prednisone treated CD1 mouse liver microsomes assessed as metabolite formation at 20 uM after 30 mins by LC/MS analysis in presence of NADPH and CYP2E inhibitor di-ethyldithiocarbamate. The settings on record: 0.5 h.
Data set [29] is described as follows: Drug metabolism in prednisone treated CD1 mouse liver microsomes assessed as metabolite formation at 20 uM after 30 mins by LC/MS analysis in presence of NADPH and CYP2C inhibitor sulfaphenazole. The settings on record: 0.5 h.
The target in data set [30] is T1, Cytochrome P450 3A4 (Homo sapiens, UniProt P08684). Briefly: Drug metabolism assessed as 100 uM troleandromycin-mediated inhibition of human CYP3A4-mediated metabolite formation by LC/MS analysis. The settings on record: recombinant enzyme.
T1 sequence (P08684 whole entry): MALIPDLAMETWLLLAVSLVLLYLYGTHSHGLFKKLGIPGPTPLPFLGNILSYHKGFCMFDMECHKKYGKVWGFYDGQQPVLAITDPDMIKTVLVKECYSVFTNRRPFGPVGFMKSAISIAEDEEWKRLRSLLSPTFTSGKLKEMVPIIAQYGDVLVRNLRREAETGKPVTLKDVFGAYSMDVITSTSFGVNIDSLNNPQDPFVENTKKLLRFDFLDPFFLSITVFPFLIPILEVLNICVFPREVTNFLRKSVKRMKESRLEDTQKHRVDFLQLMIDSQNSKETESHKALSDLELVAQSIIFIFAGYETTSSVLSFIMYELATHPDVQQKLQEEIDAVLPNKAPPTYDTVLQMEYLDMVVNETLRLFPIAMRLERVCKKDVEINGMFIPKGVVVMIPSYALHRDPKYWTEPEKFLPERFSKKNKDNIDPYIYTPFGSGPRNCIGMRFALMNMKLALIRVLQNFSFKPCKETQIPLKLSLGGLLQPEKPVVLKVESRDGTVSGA
Data set [31] concerns the target T1, Cytochrome P450 3A4. Briefly: Drug metabolism assessed as 100 uM tamoxifen-mediated inhibition of human CYP3A4-mediated metabolite formation by LC/MS analysis. To be noted: recombinant enzyme.
In data set [32] the target is T1, Cytochrome P450 3A4. Briefly: Drug metabolism assessed as 1 uM ketoconazole-mediated inhibition of human CYP3A4-mediated metabolite formation by LC/MS analysis. To be noted: recombinant enzyme.
Data set [33] addresses T1, Cytochrome P450 3A4. The experiment in a line: Drug metabolism assessed as 10 uM ritonavir-mediated inhibition of human CYP3A4-mediated metabolite formation by LC/MS analysis. To be noted: recombinant enzyme.

Structures are written as SMILES. pIC50: −log10 of the molar value. Some results are limits rather than exact numbers.

For `C=C1/C(=C\C=C2/CCC[C@]3(C)[C@@H]([C@H](C)CC[C@@H](O)C(C)(C)O)CC[C@@H]23)C[C@@H](O)C[C@@H]1O`, the Drug metabolism result in data set [1], in data set [2], in data set [3], in data set [4], in data set [6] and in data set [8] was “metabolite_detected” each time. In addition, the Drug metabolism entry in data set [9], in data set [10], in data set [12], in [14], in data set [16] and in data set [18] was “metabolite_detected” each time. Besides, the Drug metabolism result in data set [19], in [20], in data set [21], in data set [22], in [23] and in data set [24] was “metabolite_detected” in each case. The Drug metabolism result in data set [25], in data set [26], in [28] and in [29] was “metabolite_detected” in each case. Further, the Retention_time with Liver microsome [5] was 8.8 min. The pIC50 (commonly the negative decadic logarithm of the IC50, by convention in mol/L) is 7.55 in the data set on Liver microsome [7]; less than 4.40 with Liver microsome [11]; 7.11 in the data set on Liver microsome [13]; 7.38 with Liver microsome [15]; less than 4.52 in the data set on Liver microsome [17]. The “fold change (FC)” value in data set [27] was 17.

Regarding `Cc1nnc2n1-c1ccc(Cl)cc1C(c1ccccc1Cl)=NC2` [TRIAZOLAM], the Drug metabolism entry on Cytochrome P450 3A4 [30], at Cytochrome P450 3A4 [31], on Cytochrome P450 3A4 [32] and at Cytochrome P450 3A4 [33] was “metabolite_not_detected” in each case.
